Experiments:
[1] = Human liver microsome stability assay; format: in vitro ADME; settings: both sexes, human, microsomes, pH 7.4
[2] = Mouse liver microsome stability assay; format: in vitro ADME; settings: male, CD1, mouse, microsomes, pH 7.4
[3] = molecular target: human BRD4 first bromodomain (BDI_K57-E168) (Homo sapiens (Human), UniProt O60885); assay: TR-FRET bromodomain binding assay, BRD4 first bromodomain
[4] = Rat liver microsome stability assay; format: in vitro ADME; settings: rat liver microsomes (male Sprague-Dawley), 0.5 μM test compound, 0.25 mg/mL microsomal protein, pH 7.4, 37° C.; read-out: Stability in rat liver microsomes (t1/2 in minutes)
[5] = molecular target: human BRD4 second bromodomain (BDII_E352-M457) (Homo sapiens (Human), UniProt O60885); assay: TR-FRET bromodomain binding assay, BRD4 second bromodomain

Row | half-life at 0.5 μM [1] [min] | half-life at 0.5 μM [2] [min] | Ki [3] [µM] | half-life at 0.5 μM [4] [min] | Ki [5] [µM] | Structure (SMILES)
1 | 45 | 12 | 0.215 | 23 | 0.274 | Cn1cc(-c2cc(C(=O)NCc3ccc(F)c(F)c3)ccc2Oc2ccc(F)cc2F)c2cc[nH]c2c1=O [Example 125, N-(3,4-difluorobenzyl)-4-(2,4-difluorophenoxy)-3-(6-methyl-7-oxo-6,7-dihydro-1H-pyrrolo[2,3-c]pyridin-4-yl)benzamide]
2 | 100 | 25 | 2 | 21 | 0.768 | Cn1cc(-c2cc(C(=O)NCc3ccc(OC(F)(F)F)cc3)ccc2Oc2ccc(F)cc2F)c2cc[nH]c2c1=O [Example 126, 4-(2,4-difluorophenoxy)-3-(6-methyl-7-oxo-6,7-dihydro-1H-pyrrolo[2,3-c]pyridin-4-yl)-N-[4-(trifluoromethoxy)benzyl]benzamide]
3 | 11 | 4 | 0.0725 | 21 | 0.112 | Cn1cc(-c2cc(C(=O)NCc3cccnc3)ccc2Oc2ccc(F)cc2F)c2cc[nH]c2c1=O [Example 128, 4-(2,4-difluorophenoxy)-3-(6-methyl-7-oxo-6,7-dihydro-1H-pyrrolo[2,3-c]pyridin-4-yl)-N-(pyridin-3-ylmethyl)benzamide]
4 | > 120 | 83 | 0.0986 | 71 | 0.06 | CN(C)CCNC(=O)c1ccc(Oc2ccc(F)cc2F)c(-c2cn(C)c(=O)c3[nH]ccc23)c1 [Example 131, 4-(2,4-difluorophenoxy)-N-[2-(dimethylamino)ethyl]-3-(6-methyl-7-oxo-6,7-dihydro-1H-pyrrolo[2,3-c]pyridin-4-yl)benzamide]
5 | 8 | 5 | 0.274 | 24 | 0.0774 | Cn1cc(-c2cc(C(=O)N3CCC(NC(=O)OC(C)(C)C)CC3)ccc2Oc2ccc(F)cc2F)c2cc[nH]c2c1=O [Example 135, tert-butyl {1-[4-(2,4-difluorophenoxy)-3-(6-methyl-7-oxo-6,7-dihydro-1H-pyrrolo[2,3-c]pyridin-4-yl)benzoyl]piperidin-4-yl}carbamate]
6 | 15 | 9 | 0.0138 | 13 | 0.0103 | Cn1cc(-c2cc(S(C)(=O)=O)ccc2Oc2cccc3nsnc23)c2cc[nH]c2c1=O [Example 171, 4-[2-(2,1,3-benzothiadiazol-4-yloxy)-5-(methylsulfonyl)phenyl]-6-methyl-1,6-dihydro-7H-pyrrolo[2,3-c]pyridin-7-one]
7 | 9 | 7 | 0.0133 | 15 | 0.0059 | Cn1cc(-c2cc(S(C)(=O)=O)ccc2Oc2ccc3ccncc3c2)c2cc[nH]c2c1=O [Example 172, 4-[2-(isoquinolin-7-yloxy)-5-(methylsulfonyl)phenyl]-6-methyl-1,6-dihydro-7H-pyrrolo[2,3-c]pyridin-7-one]
8 | 38 | 16 | 0.0157 | 5 | 0.0066 | Cn1cc(-c2cc(S(C)(=O)=O)ccc2Oc2cc(F)ccc2F)c2cc[nH]c2c1=O [Example 173, 4-[2-(2,5-difluorophenoxy)-5-(methylsulfonyl)phenyl]-6-methyl-1,6-dihydro-7H-pyrrolo[2,3-c]pyridin-7-one]
9 | 40 | 14 | 0.0192 | 46 | 0.0143 | Cn1cc(-c2cc(S(C)(=O)=O)ccc2Oc2ccc(F)c(F)c2)c2cc[nH]c2c1=O [Example 174, 4-[2-(3,4-difluorophenoxy)-5-(methylsulfonyl)phenyl]-6-methyl-1,6-dihydro-7H-pyrrolo[2,3-c]pyridin-7-one]
10 | 48 | 29 | 0.0213 | 8 | 0.006 | Cn1cc(-c2cc(S(C)(=O)=O)ccc2Oc2cc(F)cc(F)c2)c2cc[nH]c2c1=O [Example 176, 4-[2-(3,5-difluorophenoxy)-5-(methylsulfonyl)phenyl]-6-methyl-1,6-dihydro-7H-pyrrolo[2,3-c]pyridin-7-one]
11 | 80 | 34 | 0.0225 | 55 | 0.0165 | Cc1ncccc1Oc1ccc(S(C)(=O)=O)cc1-c1cn(C)c(=O)c2[nH]ccc12 [Example 179, 6-methyl-4-{2-[(2-methylpyridin-3-yl)oxy]-5-(methylsulfonyl)phenyl}-1,6-dihydro-7H-pyrrolo[2,3-c]pyridin-7-one]
12 | 9 | 5 | 0.0248 | 4 | 0.0082 | Cc1ccc(F)cc1Oc1ccc(S(C)(=O)=O)cc1-c1cn(C)c(=O)c2[nH]ccc12 [Example 187, 4-[2-(5-fluoro-2-methylphenoxy)-5-(methylsulfonyl)phenyl]-6-methyl-1,6-dihydro-7H-pyrrolo[2,3-c]pyridin-7-one]
13 | 26 | 6 | 0.0294 | 22 | 0.018 | Cn1cc(-c2cc(S(C)(=O)=O)ccc2Oc2ccc3cccnc3c2)c2cc[nH]c2c1=O [Example 188, 6-methyl-4-[5-(methylsulfonyl)-2-(quinolin-7-yloxy)phenyl]-1,6-dihydro-7H-pyrrolo[2,3-c]pyridin-7-one]
14 | 7 | 2 | 0.0178 | 6 | 0.0088 | Cn1cc(-c2cc(S(C)(=O)=O)ccc2Oc2ccc3c(c2)CCC3)c2cc[nH]c2c1=O [Example 191, 4-[2-(2,3-dihydro-1H-inden-5-yloxy)-5-(methylsulfonyl)phenyl]-6-methyl-1,6-dihydro-7H-pyrrolo[2,3-c]pyridin-7-one]
15 | 9 | 3 | 0.0513 | 5 | 0.0096 | CC(C)c1ccc(Oc2ccc(S(C)(=O)=O)cc2-c2cn(C)c(=O)c3[nH]ccc23)cc1 [Example 192, 6-methyl-4-{5-(methylsulfonyl)-2-[4-(propan-2-yl)phenoxy]phenyl}-1,6-dihydro-7H-pyrrolo[2,3-c]pyridin-7-one]
16 | 11 | 2 | 0.0704 | 7 | 0.0136 | Cn1cc(-c2cc(S(C)(=O)=O)ccc2Oc2cccc3ccncc23)c2cc[nH]c2c1=O [Example 193, 4-[2-(isoquinolin-8-yloxy)-5-(methylsulfonyl)phenyl]-6-methyl-1,6-dihydro-7H-pyrrolo[2,3-c]pyridin-7-one]
17 | 41 | 49 | 0.0289 | 38 | 0.0191 | Cn1cc(-c2cc(S(C)(=O)=O)ccc2Oc2cc(F)c(F)c(F)c2)c2cc[nH]c2c1=O [Example 194, 6-methyl-4-[5-(methylsulfonyl)-2-(3,4,5-trifluorophenoxy)phenyl]-1,6-dihydro-7H-pyrrolo[2,3-c]pyridin-7-one]
18 | 59 | 3 | 9.5 | 5 | 0.479 | Cn1cc(-c2ccccc2-c2ccccc2)c2cc[nH]c2c1=O [Example 196, 4-(biphenyl-2-yl)-6-methyl-1,6-dihydro-7H-pyrrolo[2,3-c]pyridin-7-one]
19 | > 120 | > 120 | 0.0693 | > 120 | 0.0689 | Cn1cc(-c2cc(S(C)(=O)=O)ccc2OCCN2CCNC2=O)c2cc[nH]c2c1=O [Example 218, 6-methyl-4-{5-(methylsulfonyl)-2-[2-(2-oxoimidazolidin-1-yl)ethoxy]phenyl}-1,6-dihydro-7H-pyrrolo[2,3-c]pyridin-7-one]
20 | 65 | 98 | 0.225 | 80 | 0.969 | CN1CCC[C@H]1COc1ccc(S(C)(=O)=O)cc1-c1cn(C)c(=O)c2[nH]ccc12 [Example 222, 6-methyl-4-[2-{[(2S)-1-methylpyrrolidin-2-yl]methoxy}-5-(methylsulfonyl)phenyl]-1,6-dihydro-7H-pyrrolo[2,3-c]pyridin-7-one]
21 | 52 | > 120 | 0.264 | 59 | 0.845 | CN1CCCC1CCOc1ccc(S(C)(=O)=O)cc1-c1cn(C)c(=O)c2[nH]ccc12 (stereo not shown) [Example 225, 6-methyl-4-{2-[2-(1-methylpyrrolidin-2-yl)ethoxy]-5-(methylsulfonyl)phenyl}-1,6-dihydro-7H-pyrrolo[2,3-c]pyridin-7-one]
22 | 57 | > 120 | 0.213 | > 120 | 0.443 | Cn1cc(-c2cc(S(C)(=O)=O)ccc2OCCN2CCCC2=O)c2cc[nH]c2c1=O [Example 232, 6-methyl-4-{5-(methylsulfonyl)-2-[2-(2-oxopyrrolidin-1-yl)ethoxy]phenyl}-1,6-dihydro-7H-pyrrolo[2,3-c]pyridin-7-one]
23 | 16 | 16 | 0.0329 | 8 | 0.0237 | C=C(C)c1cc2c(-c3cc(S(C)(=O)=O)ccc3Oc3ccc(F)cc3F)cn(C)c(=O)c2[nH]1 [Example 291, 4-[2-(2,4-difluorophenoxy)-5-(methylsulfonyl)phenyl]-6-methyl-2-(prop-1-en-2-yl)-1,6-dihydro-7H-pyrrolo[2,3-c]pyridin-7-one]
